# Structures can show the parent of a compound that is named as a salt.
# System: swine adipose tissue
# Assay: Inhibition of lipogenesis (lipid synthesis from glucose-U-14C) in swine adipose tissue slices
# Format: cell-based
# Settings: Sus scrofa, 100 micrograms per milliliter, 37° C., 2 hours, glucose-U14C, insulin, 5% DMSO, triplicate, read-out: Percent Inhibition (of lipogenesis compared to control)
# Source text: The manner in which they cause this effect is not known with certainty; it is believed that they interfere with the synthesis of fatty acids in the tissue. Their effectiveness for this purpose has been ascertained by immersing samples of swine adipose tissue in a liquid medium containing radioactive glucose and the test chemical for a period of time, then isolating the lipid from the treated tissue and determining the up-take of the radioactive carbon by means of scintillation counting techniques. These tests were conducted in swine adipose tissue because in swine the primary site of lipogenesis--i.e., fatty acid synthesis--appearsto be adipose tissue. […] 150 milligrams of slices of swine adipose tissue were incubated at 37° C. for 2 hours with shaking in 3 milliliters of Krebs-Ringer bicarbonate solution containing one-half the normal calcium ion concentration, 60 micromoles of glucose, 0.5 microCurie of glucose-U^14 C, and 300 microunits of insulin, and 5% dimethyl sulfoxide (DMSO). The test compounds were added as a solution or suspension in DMSO and were present at a concentration of 100 micrograms per milliliter of the incubation mixture. The incubation was terminated by addition of 0.25 milliliter of 1 N sulfuric acid. The resulting mixture was extracted with a total of 25 milliliters of chloroform:methanol (2:1, v/v). The extracts were washed according to Folch et al. (J. Biol. […] The tests were conducted in triplicate and were accompanied by control tests in which all ingredients,proportions and conditions were the same except that no test compound was included. From the data obtained were calculated the percent inhibition of lipid synthesis by the test compound in each case. The data obtained from the tests were set out in Table I, as the percent inhibition of lipogenesis compared to the results obtained in the control tests wherein only the test compound was omitted.
row,SMILES,inhibition at 100 µg/mL
1,"CCOC(=O)C1CNc2cc(N)ccc2O1 (stereo not drawn) [Compound 5, ethyl 6-amino-3,4-dihydro-2H-1,4-benzoxazine-2-carboxylate hydrochloride]",43%
2,"CCOC(=O)C1CNc2cc(Cl)c(Cl)cc2O1 (stereo not drawn) [Compound 9, ethyl 6,7-dichloro-2,3-dihydro-2H-1,4-benzoxazine-2-carboxylate]",56%
3,"CCOC(=O)C1CNc2cc([N+](=O)[O-])cc(Cl)c2O1 (stereo not drawn) [Compound 11, ethyl 8-chloro-6-nitro-3,4-dihydro-2H-1,4-benzoxazine-2-carboxylate]",31%
4,"CCOC(=O)C1CN(Cc2ccccc2)c2ccccc2O1 (stereo not drawn) [Compound 1, Ethyl 3,4-dihydro-4-benzyl-2H-1,4-benzoxazine-2-carboxylate]",53%
5,"CCOC(=O)C1CNc2ccc([N+](=O)[O-])cc2O1 (stereo not drawn) [Compound 14, ethyl 7-nitro-3,4-dihydro-2H-1,4-benzoxazine-2-carboxylate]",92%
6,"CCOC(=O)C1CNc2cc(-c3ccccc3)ccc2O1 (stereo not drawn) [Compound 13, ethyl 6-phenyl-3,4-dihydro-2H-1,4-benzoxazine-2-carboxylate]",34%
7,"CCOC(=O)C1CNc2cc(C(F)(F)F)ccc2O1 (stereo not drawn) [Compound 7, ethyl 6-(trifluoromethyl)-3,4-dihydro-2H-1,4-benzoxazine-2-carboxylate]",31%
8,"CCOC(=O)C1CNc2cc(NS(C)(=O)=O)ccc2O1 (stereo not drawn) [Compound 6, ethyl 3,4-dihydro-6-((methylsulfonyl)amino)-2H-1,4-benzoxazine-2-carboxylate]",76%
9,"CCOC(=O)C1CNc2cc(Cl)ccc2O1 (stereo not drawn) [Compound 2, Ethyl 6-chloro-3,4-dihydro-2H-1,4-benzoxazine-2-carboxylate]",28%
10,"CCOC(=O)C1CNc2cc([N+](=O)[O-])ccc2O1 (stereo not drawn) [Compound 4, ethyl 6-nitro-3,4-dihydro-2H-1,4-benzoxazine-2-carboxylate]",74%
11,"CCOC(=O)C1CNc2cccc(Cl)c2O1 (stereo not drawn) [Compound 12, ethyl 8-chloro-3,4-dihydro-2H-1,4-benzoxazine-2-carboxylate]",39%
12,"CCOC(=O)C1CNc2ccccc2O1 (stereo not drawn) [Compound 1A, 3,4-dihydro-2H-1,4-benzoxazine-2-carboxylic acid ethyl ester hydrochloride]",62%
13,"CCOC(=O)C1CNc2cc(C)ccc2O1 (stereo not drawn) [Compound 3, Ethyl 6-methyl-3,4-dihydro-2H-1,4-benzoxazine-2-carboxylate hydrochloride]",18%
14,"CCOC(=O)C1CNc2ccc(C)cc2O1 (stereo not drawn) [Compound 10, ethyl 7-methyl-3,4-dihydro-2H-1,4-benzoxazine-2-carboxylate]",54%
15,"CCOC(=O)C1CNc2cc(OC)ccc2O1 (stereo not drawn) [Compound 8, ethyl 6-methoxy-2,3-dihydro-2H-1,4-benzoxazine-2-carboxylate]",81%

# — patent US4180572A, “Lipogenesis control by esters of benzoxazinecarboxylic acids” (Shell Oil Company, priority 1978, dated 1979)
